# In patent US20140073778A9, “CONJUGATES COMPRISING HYDROXYALKYL STARCH AND A CYTOTOXIC AGENT AND PROCESS FOR THEIR PREPARATION” (priority 2010, published 2014):
# Marks after values point to notes of the source that are not given here.
# How the values were obtained:
# [1] = Body weight change as sign of toxicity in HT-29 xenograft-bearing mice; type: in vivo, NMRI:nu/nu mice
# Procedure: (§1) […] The application volume was 0.2 ml/20 g mouse body weight. The test compounds, the vehicle controls and the reference compounds were all given intravenously (i.v.).
# (§2) Tumor growth inhibition was used as therapeutic parameter. Additionally, body weight change was determined as signs for toxicity (particularly, potential hematological or gastrointestinal side effects).
# Individual body weights of mice were determined twice weekly and mean body weight per group was related to the initial value in percent (body weight change, BWC).
# On the day of necropsy mice were sacrificed by cervical dislocation and inspected for gross organ changes.
# The loss of body weight is known to be an indicator of gastrointestinal and hepatotoxicity of the tested compound.
# [2] = test system: human colon carcinoma HT-29; test: Tumor growth inhibition (relative tumor volume, T/C) in s.c. HT-29 xenograft model; type: in vivo, human (xenograft in NMRI:nu/nu mice)
# Procedure: The cells were obtained from ATCC and are cryo-preserved within the EPO tumor bank. They were thawed, expanded in vitro and transplanted as cell suspension subcutaneously (s.c.) in female NMRI:nu/nu mice. […] It was therefore selected for this study.
# For experimental use 10^7 tumor cells/mouse from the in vitro passage were transplanted s.c. into the flank of each of 10 mice/group at day 0.
# as §1, §2
# Tumor diameters were measured twice weekly with a caliper. Tumor volumes were calculated according to V=(length×(width)^2)/2. For calculation of the relative tumor volume (RTV) the tumor volumes at each measurement day were related to the day of first treatment. At each measurement day the median and mean tumor volumes per group and also the treated to control (T/C) values in percent were calculated.
# Descriptive statistics were performed on the data of body weight and tumor volume. […] Statistical evaluation was performed with the U-test of Mann and Whitney with a significance level of p≦0.05, using the Windows program […] 6.
# Solutions were prepared immediately before injection by solving the conjugates in saline solution by vortexing in combination with centrifugation until a clear solution of the necessary concentration of the drug was obtained.
# [3] = test system: human lung carcinoma LXFL-529; test: Tumor growth inhibition (relative tumor volume) in LXFL-529 xenograft model; type: in vivo, human (xenograft in NMRI nu/nu mice)
# Text: (§3) Mouse strain: NMRI nu/nu, female Animals supplied by: Charles River, Germany Age of mice at implantation: 5-7 weeks
# (§4) The tumor xenografts LXFL-529 and MAXF-401 (Fiebig H H, Berger D P, Dengler W A, Wallbrecher E, Winterhalter B R: Combined In Vitro/In Vivo Test Procedure with Human Tumor Xenografts for New Drug Development. Contrib. Oncol., Basel, Karger, 1992, Vol. 42, pp 321-351) used in this study were derived from surgical specimen from patients treated at the University Hospital in Freiburg, Germany, and directly implanted into nude mice. Prior to surgery, most of the patients had not received any chemotherapy.
# (§5) Tumor fragments were obtained from xenografts in serial passage in nude mice. After removal from donor mice, tumors were cut into fragments (4-5 mm diameter) and placed in PBS until subcutaneous implantation. Recipient mice were anaesthetized by inhalation of isoflurane. A small incision was made in the back and one tumor fragment per animal was transplanted with tweezers. The mice were monitored daily.
# (§6) At randomization, tumor-bearing animals were stratified according to tumor volume into treatment and vehicle (control) groups. Only animals carrying one tumor of appropriate size (approximately 50-250 mm^3) were considered for randomization. Mice were randomized when the required number of mice qualified for randomization. The day of randomization was designated as day 0, which was also the first day of dosing.
# (§7) All test items were formulated in 0.9% NaCl solution and given as i.v. bolus injection.
# (§8) Measurement of tumor volume and body weight as well as calculations of relative tumor volumes were carries out analgue to the procedure described in 2.3.
# [4] = Body weight change / toxicity in MAXF-401 xenograft-bearing mice; type: in vivo, NMRI nu/nu mice; conditions: Table 18, CA4P 50, 40 mg/kg/inj. d 0, 10, CCs1 60 d 0, CCs2 60, 40 d 0, 10
# Procedure: All experiments were conducted according to the guidelines of the German Animal Welfare Act (Tierschutzgesetz). Animal health was examined prior to tumor implantation and randomization to ensure that only animals without any symptoms of disease were selected to enter testing procedures. During the experiments, animals were monitored daily regarding tumor burden, general condition, feed and water supply.
# as §7, §8
# [5] = test system: human mammary carcinoma (MAXF-401); test: Tumor growth inhibition (relative tumor volume) in MAXF-401 xenograft model; type: in vivo, human (xenograft in NMRI nu/nu mice)
# Text: as §3, §4, §5
# as §6, with “The day of randomization was designated as day 0, which was also the first day of dosing.” left out
compound,measurement,setting,value
CCc1c2c(nc3ccc(OC(=O)N4CCC(N5CCCCC5)CC4)cc13)-c1cc3c(c(=O)n1C2)COC(=O)[C@]3(O)CC [Irinotecan],Toxic death (day),"[1]; Table 14, number of toxic deaths of 8 mice, Irinotecan 15 mg/kg/inj. d 9-13, conjugates 60 mg/kg/inj. d 9, day of death in parentheses",1
same,Toxic death (at day),"[1]; Table 17, number of toxic deaths per group (day), treatment d 8, Irinotecan 60, CSN21 30, CSN23 60, CSN22 and CIr1-3 80 mg/kg/inj.",1 (20)
same,RTV T/C (%) Optimum (at day),"[2]; Table 14, optimum at day 54, Irinotecan 15 mg/kg/inj. d 9-13, conjugates 60 mg/kg/inj. d 9",48.2%
same,RTV T/C (%) Optimum (at day),"[2]; Table 15, Irinotecan 15 mg/kg/inj. d 8-12, conjugates 60 mg/kg/inj. d 8, day of optimum printed below value (30; CSN10 34; CSN13 13)",27.7* %
same,RTV T/C (%) Optimum (at day),"[2]; Table 16, 60 mg/kg/inj. d 7, day of optimum in parentheses (21-42)",66.3%
COc1cc([C@@H]2c3cc4c(cc3[C@@H](O[C@@H]3O[C@@H]5CO[C@@H](C)O[C@H]5[C@H](O)[C@H]3O)[C@H]3COC(=O)[C@H]23)OCO4)cc(OC)c1O [V-16 (Etoposid)],Tumor volume cm^3/d 16,"[3]; Table 19, day 16, treatment d 0, 3, 7, Etoposid 20 mg/kg/inj., CEt1 20, 40, 50 mg/kg/inj.",0.293 +/− 0.137 cm^3
same,RTV T/C (%) Optimum (at day),"[3]; Table 19, optimum at day 16, treatment d 0, 3, 7, Etoposid 20 mg/kg/inj., CEt1 20, 40, 50 mg/kg/inj.",15.5 (16) %
same,RTV T/C (%) re-normalized on day 7,"[3]; Table 19, re-normalized on day 7, treatment d 0, 3, 7, Etoposid 20 mg/kg/inj., CEt1 20, 40, 50 mg/kg/inj.",22.6%
"COc1ccc(/C=C\c2cc(OC)c(OC)c(OC)c2)cc1OP(=O)([O-])[O-].[Na+].[Na+] [combretastatin A4 phosphate, Combretastatin A4 phosphate disodium salt]",BWC [%] (at day),[4]; day of value in parentheses,−1.8 (7) %
same,Mortality (at day),[4]; deaths of 4 mice (day),0
same,inhibition of tumor growth,"[5]; MAXF-401 xenografts in nude mice, i.v. bolus",only modest anti-tumor activity
same,RTV T/C (%) Optimum (at day),"[5]; Table 18, CA4P 50, 40 mg/kg/inj. d 0, 10, CCs1 60 d 0, CCs2 60, 40 d 0, 10, day of optimum in parentheses",59.8 (13) %
"COc1cc([C@@H]2c3cc4c(cc3[C@@H](O[C@@H]3O[C@@H]5CO[C@@H](C)O[C@H]5[C@H](O)[C@H]3O)[C@H]3COC(=O)[C@H]23)OCO4)cc(OC)c1O [etoposide, Etoposide]",loss of tumor volume between d7 and d16,"[3]; LXFL-529 xenografts in nude mice, tumor shrinkage after day 7",26%
same,tumors still shrinking or at least stabile,"[3]; LXFL-529 xenografts, at the last day of the experiment",2/5
